The values below come from BindingDB's records for doi:10.1021/jm9904102 (Abbott Laboratories, 2000).

Target in one experiment: not listed separately
The experiment can be described thus: Inhibition of calcium ionophore (A-23187)-stimulated LTB4 formation in human neutrophil assay.
As for `O=C(O)/C=N/OC(c1ccc(OCc2nc3cc(F)ccc3s2)cc1)C1CCCCC1` (configuration not stated) [{Cyclohexyl-[4-(5-fluoro-benzothiazol-2-ylmethoxy)-phenyl]-methoxyimino}-acetic acid], the IC50 was found to be 87 nM.

Take `C/C(CCC(=O)O)=N\OC(c1ccc(OCc2ccc3ccccc3n2)cc1)C1CCCCC1` (configuration not stated) [(Z)-4-{Cyclohexyl-[4-(quinolin-2-ylmethoxy)-phenyl]-methoxyimino}-pentanoic acid]: the IC50 is 17 nM.

With `O=C(O)/C=N/OC(c1ccc(OCc2ccc3ccccc3n2)cc1)C1CCCC1` (configuration not stated) [{Cyclopentyl-[4-(quinolin-2-ylmethoxy)-phenyl]-methoxyimino}-acetic acid], the IC50 was 30 nM.

For `O=C(O)CSC(CCCc1ccc(Cl)cc1)c1ccc(OCc2ccc3ccccc3n2)cc1` [L-674636], the 50% inhibitory concentration (IC50) stood at 7 nM.

For `C/C(=N\OC(c1ccc(OCc2nc3ccccc3s2)cc1)C1CCCCC1)C(=O)O` (configuration not stated) [2-{[4-(Benzothiazol-2-ylmethoxy)-phenyl]-cyclohexyl-methoxyimino}-propionic acid (0.5H2O)], the IC50 is 60 nM.

In the case of `C/C(CCC(=O)O)=N/OC(c1ccc(OCc2ccc3ccccc3n2)cc1)C1CCCCC1` (configuration not stated), the IC50 came to 20 nM.

For the molecule `Cc1cc(C(O/N=C/C(=O)O)C2CCCCC2)ccc1OCc1ccc2ccccc2n1` (configuration not stated) [{Cyclohexyl-[3-methyl-4-(quinolin-2-ylmethoxy)-phenyl]-methoxyimino}-acetic acid (0.4H2O)], the IC50 is 20 nM.

Regarding `C/C(=N\OC(c1ccc(OCc2nc(-c3ccccc3)cs2)cc1)C1CCCCC1)C(=O)O` (configuration not stated) [2-{Cyclohexyl-[4-(4-phenyl-thiazol-2-ylmethoxy)-phenyl]-methoxyimino}-propionic acid (0.5H2O)], the IC50 is 20 nM.

For `CC/C(=N\OC(c1ccc(OCc2ccc3ccccc3n2)cc1)C1CCCCC1)C(=O)O` (configuration not stated) [2-{Cyclohexyl-[4-(quinolin-2-ylmethoxy)-phenyl]-methoxyimino}-butyric acid (H2O)], the IC50 was 30 nM.

Regarding `O=C(O)/C=N/OC(c1ccc(OCc2nc3ccccc3o2)cc1)C1CCCCC1` (configuration not stated) [{[4-(Benzooxazol-2-ylmethoxy)-phenyl]-cyclohexyl-methoxyimino}-acetic acid (0.5H2O)], the IC50 is 143 nM.

As to `C/C(=N\O[C@@H](c1ccc(OCc2ccc3ccccc3n2)cc1)C1CCCCC1)C(=O)O`, the IC50 amounted to 70 nM.

Turning to `C/C(=N\O[C@H](c1ccc(OCc2ccc3ccccc3n2)cc1)C1CCCCC1)C(=O)O`, the IC50 came out at 34 nM.

As to `CC(C)c1ccc(-c2csc(COc3ccc(C(O/N=C/C(=O)O)C4CCCCC4)cc3)n2)cc1` (configuration not stated) [(Cyclohexyl-{4-[4-(4-isopropyl-phenyl)-thiazol-2-ylmethoxy]-phenyl}-methoxyimino)-acetic acid (2H2O)], the IC50 came out at 35 nM.

As to `C/C(=N\OC(Cc1ccc(OCc2ccc3ccccc3n2)cc1)C1CCCCC1)C(=O)O` (configuration not stated) [2-{1-Cyclohexyl-2-[4-(quinolin-2-ylmethoxy)-phenyl]-ethoxyimino}-propionic acid], the IC50 came out at 50 nM.

With `C/C(=N\OC(c1ccc(OCc2ccc3ccccc3n2)cc1)C1C2CC3CC(C2)CC1C3)C(=O)O` (configuration not stated) [2-{Adamantan-2-yl-[4-(quinolin-2-ylmethoxy)-phenyl]-methoxyimino}-propionic acid], the IC50 turned out to be 20 nM.

For the molecule `Cc1nc(COc2ccc(C(O/N=C/C(=O)O)C3CCCCC3)cc2)cs1` (configuration not stated) [{Cyclohexyl-[4-(2-methyl-thiazol-4-ylmethoxy)-phenyl]-methoxyimino}-acetic acid], the IC50 is 380 nM.

The target of another experiment is T1, Polyunsaturated fatty acid 5-lipoxygenase (Homo sapiens, UniProt P09917).
T1 sequence (P09917 whole entry): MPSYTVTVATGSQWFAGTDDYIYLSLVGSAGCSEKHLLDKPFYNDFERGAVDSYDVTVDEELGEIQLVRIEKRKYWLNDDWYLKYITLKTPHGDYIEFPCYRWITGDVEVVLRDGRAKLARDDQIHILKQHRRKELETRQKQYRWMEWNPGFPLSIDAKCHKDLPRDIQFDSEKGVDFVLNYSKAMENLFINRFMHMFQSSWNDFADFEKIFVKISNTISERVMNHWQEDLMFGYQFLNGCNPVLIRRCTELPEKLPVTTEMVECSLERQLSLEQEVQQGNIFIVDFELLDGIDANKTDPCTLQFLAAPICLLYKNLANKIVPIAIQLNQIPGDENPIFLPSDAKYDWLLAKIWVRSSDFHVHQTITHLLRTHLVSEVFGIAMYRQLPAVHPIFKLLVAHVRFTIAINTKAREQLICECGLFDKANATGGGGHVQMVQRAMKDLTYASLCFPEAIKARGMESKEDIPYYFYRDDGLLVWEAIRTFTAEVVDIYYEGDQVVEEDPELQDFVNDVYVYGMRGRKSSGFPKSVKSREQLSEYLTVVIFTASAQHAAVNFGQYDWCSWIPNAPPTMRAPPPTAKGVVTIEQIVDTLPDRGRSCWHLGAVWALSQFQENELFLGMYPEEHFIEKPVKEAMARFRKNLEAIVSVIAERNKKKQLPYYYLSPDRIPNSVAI
The experiment can be described thus: Inhibition of calcium ionophore (A-23187)-stimulated LTB4 formation in human neutrophil assay.
In the case of `C/C(=N\OC(c1ccc(OCc2ccc3ccccc3n2)cc1)C1CCCCC1)C(=O)O` (configuration not stated) [S-E-2-{Cyclohexyl-[4-(quinolin-2-ylmethoxy)-phenyl]-methoxyimino}-propionic acid], the IC50 was found to be 15 nM.

In general, IC50 refers to the concentration needed to halve the response being measured.
